Here are results for 1 compound from US4914198A, “Novel substance UCY1003 and process for preparing the same” (priority 1985, dated 1990).

The ED50 is the midpoint of the dose-response relation. For orientation: MIC means the lowest concentration that inhibits growth of the organism. Read a high MIC as a less susceptible organism. What is called LD50 is the dose at which mortality reaches 50%. Higher therefore signals a less toxic substance.

Data set [1] concerns male dd mice (number of writhes). The experiment in a line: Analgesic activity: acetic acid-induced writhing in mice. Type of data set: in vivo. The conditions noted are these: for Inhibition Ratio: i.p., 60 min before acetic acid, N = 4. As for the experimental part: In this experiment, 4 male dd mice wieghing 20±1 g were used as one group for examination of analgesic activity. Sixty minutes after intraperitoneal administration of UCY1003 to each animal, 0.2 ml of a 0.7% acetic acid solution was intraperitoneally administered to the animal. Starting 10 minutes after the administration of acetic acid, the number of writhes occurred in 5 minutes was counted. Inhibition ratio in comparison with control group was calculated by the following equation. ED50 value was calculated in accordance with Litchfield and Wilcoxon. [formula] A: Average number of writhes of control group B: Average number of writhes of test group
In general terms: Writhing tests count abdominal constrictions after an irritant is injected.

Data set [2] has as its system Male spontaneously hypertensive rats (SHR) of Okamoto-Aoki strain. The experiment in a line: Hypotensive activity: systolic blood pressure of conscious SHR, tail artery, plethysmographic apparatus. Conditions: for Blood Pressure after (90 min): 90 min after administration; for Blood Pressure after (90 min) / Blood Pressure Difference (before vs 90 min after administration) / Blood Pressure before: N = 3; for Blood Pressure after (90 min) / Blood Pressure before: mean ± S.E.; for Blood Pressure Difference (before vs 90 min after administration): a decrease; for Blood Pressure before: before administration (baseline). In kind it is in vivo, rat (SHR. As to the method: Male spontaneously hypertensive rats (SHR) of Okamoto-Aoki strain (body weight, 310-360 g) were used. Systolic blood pressure of conscious SHR was measured indirectly from the tail artery with a plethysmographic apparatus (Ueda Electric Works, USM-105R). Test compound UCY1003 was suspended in 0.3% sodium carboxymethylcellulose (CMC) solution and was intraperitoneally administered in a volume of 2 ml per kg of body weight.

Data set [3] concerns Bacillus subtilis No. 10707. The experiment in a line: Agar dilution method (pH 7), MIC. In kind it is cell-based. The text has this:
(§1) Anti-bacterial activities of UCY1003 against various microorganisms measured by agar dilution method (pH 7) are shown in Table 3.
(Agar dilution tests growth on a series of plates holding different concentrations.)

For data set [4], the system named is Candida albicans ATCC 10231. The experiment in a line: Agar dilution method (pH 7), MIC. Type of data set: cell-based. The conditions noted are these: ATCC10231.
Source text: as §1

A further data set has as its system Escherichia coli ATCC 26. Description: Agar dilution method (pH 7), MIC. Type of data set: cell-based. The conditions noted are these: ATCC26.
Source text: as §1

The test system of data set [5] is Klebsiella pneumoniae ATCC 10031. The experiment in a line: Agar dilution method (pH 7), MIC. Type of data set: cell-based. Conditions: ATCC10031.
Source text: as §1

Data set [6] deals with Saccharomyces cerevisiae C-203. The experiment in a line: Agar dilution method (pH 7), MIC. In kind it is cell-based. Conditions: C203.
Source text: as §1

Data set [7] deals with Salmonella typhosa ATCC 9992. The experiment in a line: Agar dilution method (pH 7), MIC. In kind it is cell-based. Conditions: Salmonella enterica.
Source text: as §1

In data set [8] the test system is Staphylococcus aureus ATCC 6538P. The experiment in a line: Agar dilution method (pH 7), MIC. Type of data set: cell-based. The conditions noted are these: ATCC6538P.
Source text: as §1

The next data set in a line: Acute toxicity in mice. Conditions: mouse, in vivo, ip; single intraperitoneal administration, 5 ddY mice, 14 days observation, Beherns Karber's method. As to the method:
UCY1003 was intraperitoneally administered once to each animal of the test group consisting of 5 ddY mice. […] The LD50 was determined by Beherns Karber's method to be more than 200 mg/kg.

In brackets after ≈: the same amount, converted by molar mass.

For the compound `C=C(CCC1(C)OC2O[C@@H]3C[C@H]1[C@]21CC[C@@H]2[C@@]4(C)CC[C@H](O)C[C@@H]4C[C@@H]4O[C@@]42[C@H]31)C(C)C` (stereo partly drawn) [UCY1003], the “Inhibition Ratio” value in data set [1] (5 mg/kg) is listed as 17%; in data set [1] (10 mg/kg) it was 52%; in data set [1] (25 mg/kg), 52%; in data set [1] (50 mg/kg), 83%; in [1] (100 mg/kg), 95%. Besides, in data set [1] (Mus musculus, ip, calculated in accordance with Litchfield and Wilcoxon), the ED50 is 17 mg/kg. Besides, the “Blood Pressure after (90 min)” value came to 177 ± 14 mmHg in [2] (50 mg/kg, i.p.) and 142 ± 9 mmHg in [2] (100 mg/kg, i.p.). Besides, the “Blood Pressure Difference (before vs 90 min after administration)” value in data set [2] (50 mg/kg, i.p.) is given as 18 ± 15 mmHg; in data set [2] (100 mg/kg, i.p.), 45 ± 8 mmHg. In addition, the hypotension result in data set [2] (100 mg/kg, i.p.) was “caused hypotension”. For the same compound, the “Blood Pressure before” value in [2] (50 mg/kg i.p. group) amounted to 195 ± 8 mmHg; in [2] (100 mg/kg i.p. group) it was 187 ± 3 mmHg. Besides, the MIC in data set [3] is more than 100 µg/mL; in data set [4], more than 100 µg/mL; with Escherichia coli ATCC 26, more than 100 µg/mL; in [5], more than 100 µg/mL; in data set [6], 2 µg/mL (≈ 4.52 µM); in [7] it was more than 100 µg/mL. The compound also displayed an MIC in data set [8] of more than 100 µg/mL. The compound further displayed a 50% lethal dose (LD50) at 336 h in “Acute toxicity in mice” of more than 200 mg/kg.
